# Read-outs that look alike come from different tables or passages of the source.
# What was measured:
# MDR A. baumannii 2982 [1] = assay: MIC/MBC antimicrobial assay; assay type: cell-based; conditions: Acinetobacter baumannii; MDR strain 2982; normal media; triplicate, two independent experiments
# Procedure: (§1) Bacterial cells Acinetobacter baumannii 10591 and 14B0091 were obtained from BCRC Taiwan. All the MDR strains were obtained from the hospital as gifts. The antimicrobial assay was performed as per the standard protocol; 50 µL of 10^6 CFU/mL of mid-log phase bacterial suspension was treated with 50 µL of candidate peptide and meropenem (Sigma: PHR1772) incubated at 37 °C for 960~1200 min. The clear wells corresponding to the lowest concentrations are reported as the minimum inhibitory concentration (MIC). Suspensions from the clear wells were plated on Mueller–Hinton agar (MHA) plates and incubated at 37 °C overnight. The lowest concentration corresponding to no growth was recorded as the minimum bactericidal concentration (MBC). To detect the effect of human serum (H3667, Sigma Aldrich, St. Louis, MO, USA) on the peptides, the media was replaced with 50% human serum-containing media. Similarly, to detect the effect of lung surfactant (SURVANTA®, beractant, AbbVie Inc., Lake Bluff, IL, USA (25 mg/mL)) on the antimicrobial activity of the peptide, the normal media was replaced with 5% lung surfactant-containing media. To analyse the bacterial killing kinetics, after the addition of the peptide to the bacterial suspension, 10 µL of broth was diluted 1000 times, plated at 30 min intervals, and allowed to incubate for 90 min. The bacterial load is expressed as CFU/mL as a function of time.
# MDR A. baumannii 1033 [2] = assay: MIC/MBC antimicrobial assay; assay type: cell-based; conditions: Acinetobacter baumannii; MDR strain 1033; normal media; triplicate, two independent experiments
# Procedure: as §1
# MDR A. baumannii 2962 [3] = assay: MIC/MBC antimicrobial assay; assay type: cell-based; conditions: Acinetobacter baumannii; MDR strain 2962; normal media; triplicate, two independent experiments
# Procedure: as §1
# MDR A. baumannii 2088 [4] = assay: MIC/MBC antimicrobial assay; assay type: cell-based; conditions: Acinetobacter baumannii; MDR strain 2088; normal media; triplicate, two independent experiments
# Procedure: as §1
# MDR A. baumannii 2997 [5] = assay: MIC/MBC antimicrobial assay; assay type: cell-based; conditions: Acinetobacter baumannii; MDR strain 2997; normal media; triplicate, two independent experiments
# Procedure: as §1
# A. baumannii = assay: Peptide sensitivity to temperature (MIC/MBC after heating); assay type: cell-based, Acinetobacter baumannii
# Procedure: as §1
# Here, 50 µL of 10^6 CFU/mL bacterial cells were treated with peptide previously incubated at 40, 60, 80, and 100 °C for 1 h. The peptide activity was reported as per the standard MIC and MBC protocols.
# MDR A. baumannii 1019 = assay: Fractional inhibitory concentration (FIC) index assay; assay type: cell-based, Acinetobacter baumannii; conditions: strain 1019
# Procedure: (§2) A 2-fold dilution of peptide in 50 µL of media was performed along the vertical axis of a 96-well plate. Similarly, 50 µL of the next drug was diluted 2-fold along the horizontal axis. Next, 50 µL of […] was added, and the standard MIC protocol was performed. The FIC index was calculated according to the following formula:FICI = FIC A + FIC B where FIC A is MIC A & B combined/MIC A and FIC B is MIC A & B combined/[…].
# MDR A. baumannii 3618 = assay: as above; assay type: cell-based, Acinetobacter baumannii; conditions: strain 3618
# Procedure: as §2
# MDR A. baumannii 2982 [6] = assay: as above; assay type: cell-based, Acinetobacter baumannii; conditions: strain 2982
# Procedure: as §2
# MDR A. baumannii 1033 [7] = assay: as above; assay type: cell-based, Acinetobacter baumannii; conditions: strain 1033
# Procedure: as §2
# MDR A. baumannii 2962 [8] = assay: as above; assay type: cell-based, Acinetobacter baumannii; conditions: strain 2962
# Procedure: as §2
# MDR A. baumannii 921 = assay: as above; assay type: cell-based, Acinetobacter baumannii; conditions: strain 921
# Procedure: as §2
# MDR A. baumannii 1607 = assay: as above; assay type: cell-based, Acinetobacter baumannii; conditions: strain 1607
# Procedure: as §2
# MDR A. baumannii 1702 = assay: as above; assay type: cell-based, Acinetobacter baumannii; conditions: strain 1702
# Procedure: as §2
# MDR A. baumannii 2998 = assay: as above; assay type: cell-based, Acinetobacter baumannii; conditions: strain 2998
# Procedure: as §2
# MDR A. baumannii 14B001 = assay: as above; assay type: cell-based, Acinetobacter baumannii; conditions: strain 14B001
# Procedure: as §2
# MDR A. baumannii 2088 [9] = assay: as above; assay type: cell-based, Acinetobacter baumannii; conditions: strain 2088
# Procedure: as §2
# MDR A. baumannii 2997 [10] = assay: as above; assay type: cell-based, Acinetobacter baumannii; conditions: strain 2997
# Procedure: as §2
# [11] = Acinetobacter baumannii, drug alone, two experiments in triplicate
structure (smiles),measurement,setting,value
"C[C@@H](O)[C@H]1C(=O)N2C(C(=O)O)=C(S[C@@H]3CN[C@H](C(=O)N(C)C)C3)[C@H](C)[C@H]12 [Meropenem, meropenem]",MBC,MDR A. baumannii 2982 [1],> 100 µg/mL
same,MIC,MDR A. baumannii 2982 [1],> 100 µg/mL
same,MBC,MDR A. baumannii 1033 [2],100 µg/mL
same,MIC,MDR A. baumannii 1033 [2],50 µg/mL
same,MBC,MDR A. baumannii 2962 [3],50 µg/mL
same,MIC,MDR A. baumannii 2962 [3],50 µg/mL
same,MBC,MDR A. baumannii 2088 [4],> 100 µg/mL
same,MIC,MDR A. baumannii 2088 [4],> 100 µg/mL
same,MBC,MDR A. baumannii 2997 [5],50 to 100 µg/mL
same,MIC,MDR A. baumannii 2997 [5],50 to 100 µg/mL
same,MIC,A. baumannii; Acinetobacter baumannii,1.56 µg/mL
same,MBC,"A. baumannii; Acinetobacter baumannii, agent incubated at 40 °C for 1 h prior to the assay, triplicate, two experiments",1.56 µg/mL
same,MBC,"A. baumannii; Acinetobacter baumannii, agent incubated at 60 °C for 1 h prior to the assay, triplicate, two experiments",1.56 µg/mL
same,MBC,"A. baumannii; Acinetobacter baumannii, agent incubated at 80 °C for 1 h prior to the assay, triplicate, two experiments",3.12 µg/mL
same,MIC,"A. baumannii; Acinetobacter baumannii, agent incubated at 80 °C for 1 h prior to the assay, triplicate, two experiments, read-out: MIC",3.12 µg/mL
same,MBC,"A. baumannii; Acinetobacter baumannii, agent incubated at 100 °C for 1 h prior to the assay, triplicate, two experiments",50 µg/mL
same,MIC,"A. baumannii; Acinetobacter baumannii, agent incubated at 100 °C for 1 h prior to the assay, triplicate, two experiments, read-out: MIC",50 µg/mL
same,MIC,"A. baumannii; agent incubated at 60 °C for 1 h prior to the assay, triplicate, two experiments",1.56 µg/mL
same,MIC,MDR A. baumannii 1019; [11],25 µg/mL
same,MIC in Combination,MDR A. baumannii 1019; TP2-5 combined with meropenem,12.5 µg/mL
same,MIC in Combination,MDR A. baumannii 1019; TP2-6 combined with meropenem,12.5 µg/mL
same,MIC,MDR A. baumannii 3618; [11],100 µg/mL
same,MIC in Combination,MDR A. baumannii 3618; TP2-5 combined with meropenem,50 µg/mL
same,MIC in Combination,MDR A. baumannii 3618; TP2-6 combined with meropenem,25 µg/mL
same,MIC,MDR A. baumannii 2982 [6]; [11],100 µg/mL
same,MIC in Combination,MDR A. baumannii 2982 [6]; TP2-5 combined with meropenem,100 µg/mL
same,MIC in Combination,MDR A. baumannii 2982 [6]; TP2-6 combined with meropenem,100 µg/mL
same,MIC,MDR A. baumannii 1033 [7]; [11],50 µg/mL
same,MIC in Combination,MDR A. baumannii 1033 [7]; TP2-5 combined with meropenem,50 µg/mL
same,MIC in Combination,MDR A. baumannii 1033 [7]; TP2-6 combined with meropenem,25 µg/mL
same,MIC,MDR A. baumannii 2962 [8]; [11],50 µg/mL
same,MIC in Combination,MDR A. baumannii 2962 [8]; TP2-5 combined with meropenem,25 µg/mL
same,MIC in Combination,MDR A. baumannii 2962 [8]; TP2-6 combined with meropenem,25 µg/mL
same,MIC,MDR A. baumannii 921; [11],100 µg/mL
same,MIC in Combination,MDR A. baumannii 921; TP2-5 combined with meropenem,100 µg/mL
same,MIC in Combination,MDR A. baumannii 921; TP2-6 combined with meropenem,50 µg/mL
same,MIC,MDR A. baumannii 1607; [11],25 µg/mL
same,MIC in Combination,MDR A. baumannii 1607; TP2-5 combined with meropenem,25 µg/mL
same,MIC in Combination,MDR A. baumannii 1607; TP2-6 combined with meropenem,25 µg/mL
same,MIC,MDR A. baumannii 1702; [11],12.5 µg/mL
same,MIC in Combination,MDR A. baumannii 1702; TP2-5 combined with meropenem,12.5 µg/mL
same,MIC in Combination,MDR A. baumannii 1702; TP2-6 combined with meropenem,1.56 µg/mL
same,MIC,MDR A. baumannii 2998; [11],200 µg/mL
same,MIC in Combination,MDR A. baumannii 2998; TP2-5 combined with meropenem,200 µg/mL
same,MIC in Combination,MDR A. baumannii 2998; TP2-6 combined with meropenem,100 µg/mL
same,MIC,MDR A. baumannii 14B001; [11],400 µg/mL
same,MIC in Combination,MDR A. baumannii 14B001; TP2-5 combined with meropenem,200 µg/mL
same,MIC in Combination,MDR A. baumannii 14B001; TP2-6 combined with meropenem,200 µg/mL
same,MIC,MDR A. baumannii 2088 [9]; [11],200 µg/mL
same,MIC in Combination,MDR A. baumannii 2088 [9]; TP2-5 combined with meropenem,100 µg/mL
same,MIC in Combination,MDR A. baumannii 2088 [9]; TP2-6 combined with meropenem,100 µg/mL
same,MIC,MDR A. baumannii 2997 [10]; [11],100 µg/mL
same,MIC in Combination,MDR A. baumannii 2997 [10]; TP2-5 combined with meropenem,50 µg/mL
same,MIC in Combination,"MDR A. baumannii 2997 [10]; TP2-6 combined with meropenem, first printed pair of the cells (before the slash)",50 µg/mL
same,MIC in Combination,"MDR A. baumannii 2997 [10]; TP2-6 combined with meropenem, second printed pair of the cells (after the slash)",25 µg/mL
